Earlier results, collected in patent US20110300245A1, “Topical, palatable, anti-inflammatory and analgesic for specific application to intraoral, gingival and extraoral areas correlated with, and related to, the trigeminal nerve and its nerve branches and plexus. To mitigate, attenuate or prevent migraine-type headache, cluster-type headache, …” (priority 2010, published 2011).
Like-named read-outs stand apart in the source and are kept apart here.

How the values were obtained:
[1] = intravesical, 213 patients
[2] = rheumatoid arthritis patients
[3] = not given; remark: listed apart in the source
[4] = for patients with symptoms controlled within 2 weeks: added orally to the sulfasalazine/prednisolone regimen, allopurinol 50 mg or DMSO 500 mg four times a day, p<0.01
[5] = not given; remark: listed apart in the source
[6] = in vivo
[7] = tested on: peripheral nerve C fibers; conditions: laboratory studies
[8] = not given; remark: listed apart in the source
[9] = not given; remark: listed apart in the source
cell proliferation = conditions: in vitro
[10] = given with sulfasalazine 2 gm daily, p<0.05

For C[S+](C)[O-] [DMSO, dimethyl sulfoxide], the “systemic or local toxicity” value [1] is listed as “no systemic or local toxicity”, the symptomatic relief ([1]; majority of patients) is listed as “Significant symptomatic relief” and the “relief of pain in rheumatoid arthritis” value (27 patients with rheumatoid arthritis) is listed as “all but four had some degree of relief of pain”. The pain relief (103 patients, topical application) was “pain relief of varying degrees in most patients”, the “time to pain relief after application” value (DMSO 1.0 ml, five patients with acute supraspinatus tendon pain associated with calcification) was no more than 10 min and the symptomatic relief (all six patients with acute calcified supraspinatus bursitis) was “Spectacular symptomatic relief”. For the same compound, the “recovery with normal use of the shoulder” value (continued applications every four hours over the following 24 hour period) was “complete recovery”, the “effects on joint pain, range of joint motion and grip strength” value [2] was “analgesic and anti-inflammatory effects” and the “number of patients with normal ICP” value ([3]; after 6 days of treatment, ten patients) was 7. The “ICP after 24 h” value ([3]; intravenous every 6 h, all ten patients, ICP 40-127 mm Hg) was “reduction of ICP”, the neurological outcome ([3]; severe closed-head injury patients, intravenous) was “improves neurological outcome” and the “patients with symptoms controlled within 2 weeks” value [4] was 84%. For the same compound, the “patients relapsed during 12 months of prophylactic treatment” value (from here on “patients relapsed during 12 months”) [4, 10] was 5%, the patients showing improvement ([5]; acute patients) was 80% and the patients showing improvement ([5]; chronic patients) was 60%. The edema in animals [6] was “reduction of edema” and the nerve conduction [7] was “blocking peripheral nerve C fibers”.
In the case of CC(C(=O)O)c1cccc(C(=O)c2ccccc2)c1 (stereo not shown) [Ketoprofen], the side effects ([8]; 30-day treatment phase) is listed as “minimal”, the “average monthly headache burden score (intensity 0-10 x duration in hours)” value ([8]; 30-day treatment phase, gel once daily, 20 patients, 30-day baseline 454.8, p<0.001) is listed as 86.5 and the “analgesic and headache medication intake” value ([8]; treatment phase versus baseline) is listed as “significantly reduced”.
For Oc1ncnc2[nH]ncc12 [allopurinol], the “patients with symptoms controlled within 2 weeks” value [4] is given as 84% and the “patients relapsed during 12 months” value [4, 10] is given as 5%.
In the case of O=C(O)c1cc(/N=N/c2ccc(S(=O)(=O)Nc3ccccn3)cc2)ccc1O [sulfasoizine, sulfasalazine], the “patients relapsed during 12 months” value ([4]; sulfasalazine 2 gm daily alone) is listed as 25%.
In the case of CNS(=O)(=O)Cc1ccc2[nH]cc(CCN(C)C)c2c1 [sumatriptan], the “mean headache relief (0-10 scale)” value ([9]; 50 mg oral, at 1, 2, 4, and 24 hours after initiation of treatment) is listed as “Significant mean headache relief”, the nausea relief ([9]; 50 mg oral, same post treatment time intervals (1, 2, 4, 24 hours)) is listed as “Significant nausea relief” and the “headache and nausea recurrence” value ([9]; at 24 hours) is listed as “some headache and nausea recurrence”.
In the case of O=C(O)C[C@H](O)C(=O)OC[C@H]1OC(O)[C@H](O)[C@@H](O)[C@@H]1O[C@H]1O[C@H](CO)[C@@H](O)[C@H](O)[C@H]1O (stereo partly drawn) [veracylglucan B, alpha-D-Glcp-(1-->4)-6-O-(1-L-maloyl)-alpha,-beta,-D-Glcp], the “anti-inflammatory activity and effect on cell proliferation” value (cell proliferation) is given as “potent anti-inflammatory and anti-proliferative effects”.
For O=C(O)C[C@H](O)C(=O)OC[C@H]1O[C@H](O[C@H]2[C@H](O)[C@@H](O)[C@@H](O[C@H]3[C@H](O)[C@@H](O)[C@@H](O[C@H]4[C@H](O)[C@@H](O)[C@@H](O[C@H]5[C@H](O)[C@@H](O)C(O)O[C@@H]5COC(=O)[C@@H](O)CC(=O)O)O[C@@H]4COC(=O)[C@@H](O)CC(=O)O)O[C@@H]3COC(=O)[C@@H](O)CC(=O)O)O[C@@H]2COC(=O)[C@@H](O)CC(=O)O)[C@H](O)[C@@H](O)[C@@H]1O[C@H]1O[C@H](CO)[C@@H](O)[C@H](O)[C@H]1O (stereo partly drawn) [veracylglucan C, alpha-D-Glcp-(1-->4)-tetra-[6-O-(1-L-maloyl)-alpha-D-Glcp-(1-->4)]-6-O-(1-L-maloyl)-alpha,-beta-D-Glcp], the “anti-inflammatory activity and effect on cell proliferation” value (cell proliferation) is listed as “significant cell proliferative and anti-inflammatory activities”.
